Data published in ChEMBL document CHEMBL3272135, “Quantitative relationships between steroid structure and binding to putative progesterone receptors” (J Med Chem, 1977).

Assays:
[1] = molecular target: T1, Progesterone receptor (Oryctolagus cuniculus) (UniProt P06186); experiment: Relative binding affinity to rabbit progesterone receptor
T1 sequence (whole entry): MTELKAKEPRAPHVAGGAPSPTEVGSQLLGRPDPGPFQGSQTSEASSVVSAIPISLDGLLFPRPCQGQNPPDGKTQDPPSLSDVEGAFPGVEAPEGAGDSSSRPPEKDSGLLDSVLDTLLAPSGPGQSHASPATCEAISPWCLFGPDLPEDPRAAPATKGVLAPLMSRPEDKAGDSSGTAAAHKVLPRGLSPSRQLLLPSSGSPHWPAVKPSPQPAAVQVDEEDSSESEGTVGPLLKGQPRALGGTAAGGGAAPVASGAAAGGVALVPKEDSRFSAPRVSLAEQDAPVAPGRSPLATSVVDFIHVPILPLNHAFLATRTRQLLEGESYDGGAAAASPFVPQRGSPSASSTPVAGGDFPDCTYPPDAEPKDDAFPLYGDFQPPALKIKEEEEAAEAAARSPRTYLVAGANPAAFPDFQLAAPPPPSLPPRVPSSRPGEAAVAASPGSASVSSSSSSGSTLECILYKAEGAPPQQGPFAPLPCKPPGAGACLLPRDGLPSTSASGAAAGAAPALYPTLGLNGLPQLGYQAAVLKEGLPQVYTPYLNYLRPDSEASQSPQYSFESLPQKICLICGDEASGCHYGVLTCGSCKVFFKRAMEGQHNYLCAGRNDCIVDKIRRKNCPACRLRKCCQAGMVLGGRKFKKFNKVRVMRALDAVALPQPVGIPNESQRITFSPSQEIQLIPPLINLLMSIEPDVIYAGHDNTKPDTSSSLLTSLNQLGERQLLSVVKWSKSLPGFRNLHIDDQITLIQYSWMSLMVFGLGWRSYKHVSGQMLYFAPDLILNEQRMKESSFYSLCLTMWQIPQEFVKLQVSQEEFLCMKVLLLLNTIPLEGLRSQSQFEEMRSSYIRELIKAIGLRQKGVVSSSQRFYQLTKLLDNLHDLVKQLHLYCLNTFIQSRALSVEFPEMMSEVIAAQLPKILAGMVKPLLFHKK

Cavia porcellus = organism: Cavia porcellus; experiment: Relative binding affinity to guinea pig progesterone receptor
[2] = molecular target: T2, Progesterone receptor (Homo sapiens) (UniProt P06401)
T2 sequence (whole entry): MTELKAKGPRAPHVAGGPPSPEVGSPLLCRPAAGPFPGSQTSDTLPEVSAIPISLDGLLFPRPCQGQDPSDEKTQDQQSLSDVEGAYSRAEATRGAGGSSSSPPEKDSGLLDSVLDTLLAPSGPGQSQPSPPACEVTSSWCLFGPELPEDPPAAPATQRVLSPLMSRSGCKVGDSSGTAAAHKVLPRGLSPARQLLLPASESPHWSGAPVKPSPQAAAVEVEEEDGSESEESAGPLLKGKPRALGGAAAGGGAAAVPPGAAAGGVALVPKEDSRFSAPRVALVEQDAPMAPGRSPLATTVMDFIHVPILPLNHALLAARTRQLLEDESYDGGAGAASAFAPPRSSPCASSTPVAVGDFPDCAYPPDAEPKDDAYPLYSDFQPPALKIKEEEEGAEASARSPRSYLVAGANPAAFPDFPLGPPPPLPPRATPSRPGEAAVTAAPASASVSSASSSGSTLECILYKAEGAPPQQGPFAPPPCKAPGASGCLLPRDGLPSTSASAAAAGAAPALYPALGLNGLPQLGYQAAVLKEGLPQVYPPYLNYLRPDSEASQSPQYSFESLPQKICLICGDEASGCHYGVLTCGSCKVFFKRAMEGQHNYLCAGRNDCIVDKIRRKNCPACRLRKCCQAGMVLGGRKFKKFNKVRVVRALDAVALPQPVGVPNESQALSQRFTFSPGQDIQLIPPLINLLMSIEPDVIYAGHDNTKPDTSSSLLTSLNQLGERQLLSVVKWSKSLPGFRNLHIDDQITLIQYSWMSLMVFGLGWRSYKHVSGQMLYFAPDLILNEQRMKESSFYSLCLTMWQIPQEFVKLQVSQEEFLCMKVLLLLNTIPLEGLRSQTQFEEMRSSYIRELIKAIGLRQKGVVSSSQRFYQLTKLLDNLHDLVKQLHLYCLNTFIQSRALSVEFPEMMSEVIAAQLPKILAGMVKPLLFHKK

[3] = molecular target: T3, Progesterone receptor (Ovis aries) (UniProt Q28590); experiment: Relative binding affinity to sheep progesterone receptor
T3 sequence (whole entry): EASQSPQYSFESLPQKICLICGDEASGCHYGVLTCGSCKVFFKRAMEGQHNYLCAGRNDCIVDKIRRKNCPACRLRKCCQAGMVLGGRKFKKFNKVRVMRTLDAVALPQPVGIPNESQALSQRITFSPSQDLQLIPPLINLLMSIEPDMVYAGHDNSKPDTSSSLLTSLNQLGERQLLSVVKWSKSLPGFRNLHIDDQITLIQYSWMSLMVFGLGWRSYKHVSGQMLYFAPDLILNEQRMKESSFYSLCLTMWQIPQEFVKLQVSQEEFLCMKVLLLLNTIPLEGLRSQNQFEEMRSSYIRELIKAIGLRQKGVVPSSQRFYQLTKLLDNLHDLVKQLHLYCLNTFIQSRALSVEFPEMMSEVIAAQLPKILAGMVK

Compound	log(RBA) [1]	log(RBA) (Cavia porcellus)	log(RBA) [2]	log(RBA) [3]
CC(=O)[C@H]1CC[C@H]2[C@@H]3CC[C@@H]4CC(=O)CC[C@]4(C)[C@H]3CC[C@]12C	1.08	0.7	1.08	0.6
CC[C@@H]1C[C@H]2[C@@H]3C=CC4=CC(=O)CC[C@@H]4[C@H]3CC[C@]2(C)[C@H]1C(=O)CF	2.24	1.17	2.15	2.13
C[C@]12C[C@H](O)[C@H]3[C@@H](CCC4=CC(=O)CC[C@@]43C)[C@@H]1CC[C@@H]2C(=O)CO	0.02	0.447	0.3	0
C#C[C@]1(O)CC[C@H]2[C@@H]3CC=C4CCCC[C@@H]4[C@H]3CC[C@@]21C	-0.523	-1.15	-1	-0.7
C[C@]12CCC(=O)C=C1CC[C@@H]1[C@@H]2CC[C@]2(C)C(=O)CC[C@@H]12	-1	-0.7	-1	-1
C[C@]1(O)CC[C@H]2[C@@H]3CCC4=CCCC[C@@H]4[C@H]3CC[C@@]21C	1.3	0.3	0.78	0.778
CC(=O)[C@@]12O[C@@H]1C[C@H]1[C@@H]3CCC4=CC(=O)CC[C@]4(C)[C@H]3CC[C@@]12C	-0.097	-0.046	0	-0.52
CC(=O)[C@H]1CC[C@H]2[C@@H]3CCC4=CC(=O)CC[C@]4(CO)[C@H]3CC[C@]12C	-0.301	-0.22	-0.52	-0.52
C#C[C@]1(O)CC[C@H]2[C@@H]3CCC4=CC(=O)CC[C@@H]4[C@H]3CC[C@@]21CC	2.62	1.43	2.22	2
CC(=O)[C@@]1(O)CC[C@H]2[C@@H]3CCC4=CC(=O)CC[C@]4(C)[C@H]3CC[C@@]21C	-0.097	-0.52	-0.15	-0.3
CC[C@@H]1C[C@H]2[C@@H]3CCC4=CC(=O)CC[C@@H]4[C@H]3CC[C@]2(C)[C@H]1C(=O)CF	2.36	1.6	2.23	2.08
C#C[C@]1(O)CC[C@H]2[C@@H]3[C@H](C)CC4=C(CCC(=O)C4)[C@H]3CC[C@@]21C	0.903	-0.4	0.78	0.7
CC[C@]12CC[C@H]3[C@@H](CCC4=CC(=O)CC[C@@]43C)[C@@H]1CC[C@@H]2C(C)=O	1.5	1.63	1.43	1.04
C#C[C@]1(O)CC[C@H]2[C@@H]3CC[C@H]4C[C@H](O)CC[C@@H]4[C@H]3CC[C@@]21C	-1	-2	-1	-1.52
C#C[C@]1(O)CC[C@H]2[C@@H]3CC[C@@H]4C[C@H](O)CC[C@@H]4[C@H]3CC[C@@]21C	-1	-2	-1	-2
CC(=O)[C@@]12[C@@H](C[C@H]3[C@@H]4CCC5=CC(=O)CC[C@]5(C)[C@H]4CC[C@@]31C)C2(C)C	2.38	1	2.11	1.9
C[C@]12CC[C@H]3[C@@H](CCC4=CC(=O)CC[C@@]43C)[C@@H]1CC[C@@H]2C(=O)CO	1.4	1.15	1.23	1.4
C#C[C@]1(O)CC[C@H]2[C@@H]3CC[C@H]4CC(=O)CC[C@@H]4[C@H]3CC[C@@]21C	1.23	0.3	1.23	1
CC(=O)O[C@]1(C(C)=O)CC[C@H]2[C@@H]3CCC4=CC(=O)CC[C@]4(C)[C@H]3CC[C@@]21C	1.72	-0.7	1.83	1.6
C#C[C@]1(O)CC[C@H]2[C@@H]3CC[C@H]4C[C@@H](O)CC[C@@H]4[C@H]3CC[C@@]21C	-0.52	-2	-0.7	-1.3
C=CC[C@]1(O)CC[C@H]2[C@@H]3CCC4=CCCC[C@@H]4[C@H]3CC[C@@]21C	1.08	-0.7	0.48	0.6
CC(=O)[C@H]1CC[C@H]2[C@@H]3CCC4=CC(=O)CC[C@]4(C)[C@H]3C(=O)C[C@]12C	0.301	0	0	-0.097
C#C[C@]1(OC(C)=O)CC[C@H]2[C@@H]3CCC4=CC(=O)CC[C@@H]4[C@H]3CC[C@@]21C	2.05	0.78	1.32	1.04
C#C[C@]1(O)CC[C@H]2[C@@H]3CCC4=CC(=O)CC[C@@H]4[C@H]3[C@@H](Cl)C[C@@]21C	2.32	1.48	2.11	2.06
